Assay results as given in patent publication US7678815B2, “Thiazole-4-carboxyamide derivatives” (Hoffmann-La Roche Inc., priority 2005, dated 2010).

molecular target: T1, human mGlu 5a receptor (Homo sapiens, UniProt P41594); assay: [3H]MPEP competition binding on membranes of EBNA cells transfected with human mGlu 5a receptor; details: competition with [3H]MPEP (2 nM), 1 h at 4° C., Ki=IC50/[1+L/Kd]
T1 construct: expressed in transfected cells; host or cells: EBNA cells (transient transfection), cell membrane homogenates
Method: The pharmacological activity of the compounds was tested using the following method: For binding experiments, cDNA encoding human mGlu 5a receptor was transiently transfected into EBNA cells using a procedure described by Schlaeger and Christensen [Cytotechnology 15:1-13 (1998)]. Cell membrane homogenates were stored at −80° C. until the day of assay where upon they were thawed and resuspended and polytronized in 15 mM Tris-HCl, 120 mM NaCl, 100 mM KCl, 25 mM CaCl2, 25 mM MgCl2 binding buffer at pH 7.4 to a final assay concentration of 20 μg protein/well.
Saturation isotherms were determined by addition of twelve [^3H]MPEP concentrations (0.04-100 nM) to these membranes (in a total volume of 200 μl) for 1 h at 4° C. Competition experiments were performed with a fixed concentration of [^3H]MPEP (2 nM) and IC50 values of test compounds evaluated using 11 concentrations (0.3-10,000 nM). Incubations were performed for 1 h at 4° C.
At the end of the incubation, membranes were filtered onto unifilter (96-well white microplate with bonded GF/C filter preincubated 1 h in 0.1% PEI in wash buffer, Packard Bio-Science, Meriden, Conn.) with a Filtermate 96 harvester (Packard BioScience) and washed 3 times with cold 50 mM Tris-HCl, pH 7.4 buffer. Nonspecific binding was measured in the presence of 10 μM MPEP. The radioactivity on the filter was counted (3 min) on a Packard Top-count microplate scintillation counter with quenching correction after addition of 45 μl of microscint 40 (Canberra Packard S.A., Zürich, Switzerland) and shaking for 20 min.
For binding experiments the Ki values of the compounds tested are given. The Ki value is defined by the following formula: Ki=IC50/[1+L/Kd] in which the IC50 values are those concentrations of the compounds tested which cause 50% inhibition of the competing radioligand ([^3H]MPEP). L is the concentration of radioligand used in the binding experiment and the Kd value of the radioligand is empirically determined for each batch of membranes prepared.

T1 sequence (P41594 21-1180 isoform P41594-2 limits assumed): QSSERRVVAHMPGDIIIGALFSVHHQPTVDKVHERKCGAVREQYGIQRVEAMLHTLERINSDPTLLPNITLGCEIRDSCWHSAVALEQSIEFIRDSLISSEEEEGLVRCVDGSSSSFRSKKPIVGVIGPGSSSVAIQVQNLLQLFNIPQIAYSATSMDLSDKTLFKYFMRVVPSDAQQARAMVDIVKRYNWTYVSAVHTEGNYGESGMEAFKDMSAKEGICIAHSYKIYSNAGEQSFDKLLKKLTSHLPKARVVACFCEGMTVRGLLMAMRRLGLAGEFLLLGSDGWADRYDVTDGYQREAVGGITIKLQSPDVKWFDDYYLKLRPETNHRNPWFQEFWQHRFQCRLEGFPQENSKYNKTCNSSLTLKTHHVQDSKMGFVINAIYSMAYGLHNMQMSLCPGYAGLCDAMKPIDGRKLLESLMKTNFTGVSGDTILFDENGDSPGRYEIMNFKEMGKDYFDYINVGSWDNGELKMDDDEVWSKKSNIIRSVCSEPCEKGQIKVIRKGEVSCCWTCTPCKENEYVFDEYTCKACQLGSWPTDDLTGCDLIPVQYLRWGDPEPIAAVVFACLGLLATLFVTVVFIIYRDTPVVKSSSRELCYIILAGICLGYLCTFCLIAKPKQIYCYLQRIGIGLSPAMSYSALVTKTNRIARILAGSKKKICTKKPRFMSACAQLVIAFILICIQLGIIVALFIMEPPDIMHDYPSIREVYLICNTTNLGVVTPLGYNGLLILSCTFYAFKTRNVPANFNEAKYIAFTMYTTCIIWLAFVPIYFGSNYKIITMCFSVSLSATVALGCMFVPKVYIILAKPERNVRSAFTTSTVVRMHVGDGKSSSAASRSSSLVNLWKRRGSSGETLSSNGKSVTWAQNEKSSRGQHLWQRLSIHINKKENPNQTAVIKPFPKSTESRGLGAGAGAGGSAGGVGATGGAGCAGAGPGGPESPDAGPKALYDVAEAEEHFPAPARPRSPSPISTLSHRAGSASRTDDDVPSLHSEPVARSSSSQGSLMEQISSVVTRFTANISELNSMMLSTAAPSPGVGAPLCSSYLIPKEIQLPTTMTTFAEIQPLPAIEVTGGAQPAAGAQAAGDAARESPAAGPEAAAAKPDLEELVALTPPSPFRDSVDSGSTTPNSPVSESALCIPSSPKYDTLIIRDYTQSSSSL

Row | Compound | Ki [µM]
1 | Cc1cccc(NC(=O)c2ncsc2Nc2c(C)noc2C)n1 [Example 74, 5-(3,5-Dimethyl-isoxazol-4-ylamino)-thiazole-4-carboxylic acid (6-methyl-pyridin-2-yl)-amide] | 0.099
2 | Cc1nccc(NC(=O)c2nc(C)sc2Nc2cccc(C(N)=O)c2)n1 [Example 209, 5-(3-Carbamoyl-phenylamino)-2-methyl-thiazole-4-carboxylic acid (2-methyl-pyrimidin-4-yl)-amide] | 0.04
3 | Cc1csc(NC(=O)c2ncsc2Nc2cccc(C#N)c2)n1 [Example 81, 5-(3-Cyano-phenylamino)-thiazole-4-carboxylic acid (4-methyl-thiazol-2-yl)-amide] | 0.019
4 | Cc1nc(C(=O)Nc2cccc(Cl)c2)c(Nc2cccc(CNC(=O)OC(C)(C)C)c2)s1 [Example 145, {3-[4-(3-Chloro-phenylcarbamoyl)-2-methyl-thiazol-5-ylamino]-benzyl}-carbamic acid tert-butyl ester] | 0.04
5 | CC(=O)c1cccc(Nc2scnc2C(=O)Nc2cccc(C)n2)c1 [Example 88, 5-(3-Acetyl-phenylamino)-thiazole-4-carboxylic acid (6-methyl-pyridin-2-yl)-amide] | 0.018
6 | Cc1cccc(NC(=O)c2ncsc2Nc2cccnc2)n1 [Example 1, 5-(Pyridin-3-ylamino)-thiazole-4-carboxylic acid (6-methyl-pyridin-2-yl)-amide] | 0.029

The remaining compounds from weak to strong by Ki, led by results:

Row | Ki [µM] | Compound
7 | 0.458 | O=C(Nc1cccc(Cl)c1)c1ncsc1NC1CC1 [Example 18, 5-Cyclopropylamino-thiazole-4-carboxylic acid (3-chloro-phenyl)-amide]
8 | 0.127 | CNc1scnc1C(=O)Nc1cccc(Cl)c1 [Example 24, 5-Methylamino-thiazole-4-carboxylic acid (3-chloro-phenyl)-amide]
9 | 0.124 | O=C(Nc1cccc(Cl)c1)c1ncsc1Nc1cccnc1 [Example 2, 5-(Pyridin-3-ylamino)-thiazole-4-carboxylic acid (3-chloro-phenyl)-amide]
10 | 0.053 | Cc1cccc(NC(=O)c2nc(C)sc2Nc2cccc(S(C)(=O)=O)c2)n1 [Example 149, 5-(3-Methanesulfonyl-phenylamino)-2-methyl-thiazole-4-carboxylic acid (6-methyl-pyridin-2-yl)-amide]
11 | 0.026 | Cc1cccc(NC(=O)c2ncsc2Nc2ccccc2)n1 [Example 13, 5-Phenylamino-thiazole-4-carboxylic acid (6-methyl-pyridin-2-yl)-amide]
